From article PMC10107299, “Neutralizing the Impact of the Virulence Factor LecA from Pseudomonas aeruginosa on Human Cells with New Glycomimetic Inhibitors” (Angewandte Chemie (International Ed. in English), 2023)

Columns and labels:
[1] = Thermodynamic solubility in TBS/Ca2+ buffer; assay type: physicochemical
From the text: Next, we quantified the solubility of at least one representative of each new class and of one parent bisacylhydrazone in aqueous media (Table 1).

[2] = In vivo pharmacokinetic study in rats; design: species or system Sprague-Dawley rats
Method: Encouraged by these promising in vitro results, an in vivo pharmacokinetic study was conducted for H2 and L2 in mice (1 mg kg^−1, i. v.) and in rats for L2 (10 mg kg^−1, i. v.). Compound concentrations were monitored in plasma and urine (Figure 6). H2 and L2 were cleared from mouse plasma within 1 h. Both compounds rapidly reached high concentrations in urine, several orders of magnitude above their respective in vitro LecA binding affinity. In fact, concentrations above the K ds were detected over the entire observation period of 5 h. […] In rats, higher amounts of L2 were detected both in plasma and urine, not solely corresponding to the 10‐fold increased dose. […] Importantly, high levels of L2 were present in rat urine even 24 h after administration. […]
Pharmacokinetic studies in rat
The in vivo part of the study was performed by the CRO Pharmacelsus (Saarbrücken, Germany). For rat in vivo pharmacokinetic studies, male Sprague-Dawley rats (Janvier-Labs, France) with 350 g - 400 g body weight were used. All experimental procedures were approved by and conducted in accordance with the regulations of the local Animal Welfare authorities (Landesamt für Gesundheit und Verbraucherschutz, Abteilung Lebensmittel- und Veterinärwesen, Saarbrücken) and any clinical signs of toxicity and any changes in behavior of the animals were recorded. Food and water were provided ad libitum throughout the study. Rats were provided with a catheter in the jugular vein 2 - 3 days prior to drug administration and blood sampling. According to national animal welfare guidelines, rats were treated once with Carprofen (5 mg/kg) directly after catheterization. Catheter was rinsed daily with K3EDTA. L2 was dissolved in PBS (pH 7.4) and administered i.v. in individual PK studies (N = 3) at 10 mg/kg in a volume of 2 mL/kg. At t = 0 h, rats were placed into metabolic cages for drug administration and immediate collection of urine and faeces samples. Further excretion products were collected during 0 - 2 h, 2 - 4 h, 4 - 8 h and 8 - 24 h. Excreta sample volumes were determined and immediately stored at -80 °C until analysis by LC-MS. 80 µL K3EDTA-treated blood was collected at t = 0.083 h, 0.25 h, 0.5 h, 1 h, 2 h, 4 h, 6 h, 8 h and 24 h post dose and samples were stored on ice until centrifugation (10 minutes at 4500 x g, 4 °C). Plasma was prepared within 45 min after collection, frozen and stored at -80 °C until analysis by LC-MS. […]
clinical signs observed after dosing.
Bioanalysis of pharmacokinetic samples from mice and from rat
First, a calibration curve was prepared by spiking different concentrations of L2 and H2 into mouse plasma, rat plasma or mouse urine (matrix for mouse and rat PK samples) from CD-1 mice. Glipizide was used as an internal standard. In addition, quality control samples (QCs) were prepared for L2 and H2 in plasma and urine. The following extraction procedures were used: 7.5 µl of a plasma sample or 15 µl of a urine sample (calibration samples, QCs or PK samples) was extracted with 35 µl of methanol containing 12.5 ng/ml of glipizide as internal standard for 15 min at 2000 rpm on an Eppendorf MixMate vortex mixer. Then samples were spun down at 15870 x g for 10 min. Supernatants were transferred to standard HPLC-glass vials. Samples from the mouse PK study with H2 in mice and from the rat PK study with L2 were analyzed via HPLC-MS/MS as described in the HPLC-MS analysis section above. PK samples from the mouse PK study with L2 were analyzed using an Agilent 1290 Infinity II HPLC system coupled to an AB Sciex QTrap 7500 mass spectrometer. LC conditions were the same as for the analysis of the samples from the mouse PK study with H2 and from the rat PK study with L2. Mass transitions for controls and compounds are depicted in the following table for the AB Sciex Trap 7500 mass spectrometer.
Peaks of PK samples were quantified using the calibration curve. The accuracy of the calibration curve was determined using QCs independently prepared on different days. […]

O=C(CCc1ccc(O[C@@H]2O[C@H](CO)[C@H](O)[C@H](O)[C@H]2O)cc1)Nc1ccc(CCc2ccc(NC(=O)CCc3ccc(O[C@@H]4O[C@H](CO)[C@H](O)[C@H](O)[C@H]4O)cc3)cc2S(=O)(=O)O)c(S(=O)(=O)O)c1 [Compound L2]
solubility ([1]; TBS/Ca2+ buffer, pH 7.4, thermodynamic from solid, aqueous buffer, from solid, read-out: Solubility S (dissolved from solid form in aqueous buffer)): > 1500 µM
Increase in solubility versus parent bisacylhydrazones ([1]; pH 7.4): over 1000 fold
solubility thermodynamic ([1]; pH 7.4, aqueous buffer, thermodynamic from solid, TBS/Ca2+ buffer w/o DMSO, N=1, read-out: Solubility S (thermodynamic)): > 1500 µM
L2 in rat urine ([2]; 24 h after administration, 10 mg kg^−1 i.v.): high levels
half-life ([2]; male, Sprague-Dawley, iv, rat plasma, 10 mg kg^−1 i.v., N=3): 37 ± 12 min
AUC ([2]; male, Sprague-Dawley, iv, rat plasma, 10 mg kg^−1 i.v., read-out: area under the curve (AUC)): 19.7 ± 12.8 µM·h
MRT ([2]; male, Sprague-Dawley, iv, rat plasma, 10 mg kg^−1 i.v., read-out: mean residence time (converted)): 41 min
clearance ([2]; male, Sprague-Dawley, plasma, iv, rat, 10 mg kg^−1 i.v.): 9.84 ± 5 mL/min/kg
Vd ([2]; male, Sprague-Dawley, plasma, iv, rat, 10 mg kg^−1 i.v., read-out: distribution volume VD): 0.46 L/kg
Time plasma concentration exceeds on-target affinity ([2]; rat plasma, 10 mg kg^−1 i.v.): at least 6 h
Behavior and clinical signs after dosing ([2]; rat, 10 mg/kg i.v.): normal behavior
